Here are results for 1 molecule from patent US20110117055A1, “Methods of Treating Hepatitis C Virus with Oxoacetamide Compounds” (priority 2009, published 2011).

Assay [1] has as its system Bovine viral diarrhea virus (BVDV). The experiment in a line: BVDV plaque-forming assay in MDBK cells. The following applies: even at 1 μM. Type of assay: cell-based. How it is done: Bovine viral diarrhea virus (BVDV) is a closely related virus to HCV, belonging to the same Family, Flaviviridae. To validate the specificity of antiviral activity, BVDV infection was done with MDBK cells in the presence of compounds provided herein. MDBK cells (70 to 80% confluent) were infected with a diluted virus. Following 1 h of adsorption at 37° C., cells were washed once with DMEM, overlaid with 1.5% low-melting-point (LMP) agarose (Gibco-BRL) in MEM containing 5% HS, and incubated at 37° C. To assay for plaque-forming virus, after 3 days monolayers were fixed with 3.7% formaldehyde for 2 h at room temperature, the agarose plugs were removed, and the monolayers were stained with crystal violet.

The next assay deals with Jc1-luc virus. As to the kind of experiment: Luciferase compound activity assay, Jc1-luc virus in Huh7.5.1 cells. Type of assay: cell-based, HCV genotype-2a. The following applies: Hepatitis C virus, Huh-7.5.1. How it is done: Cell culture. Human hepatoma Huh-7.5.1 cells or Huh7 cells were grown at 37° C. and 5% CO2 in Dulbecco's modification of Eagle's medium supplemented with 2 mM L-glutamine, 1 mM Sodium pyruvate, 1× Non-essential amino acids mix, 100 units/ml penicillin, 100 μg/ml streptomycin, and 10% fetal bovine serum.
Virus plasmids. The chimeric full-length construct pFL-JC1, a GT2a/2a chimera consisting of structural genes from the J6CF isolate and non-structural genes from the JFH1 isolate, has been described previously. See Backes et al., J. Virol. 2010, 84:5775-89; Schaller et al., J. Virol., 2007, 81:4591-603; Koutsoudakis et al., J. Virol. 2006, 80:5308-20; Pietschmann et al., Proc. Natl. Acad. Sci., 2006, 103:7408-13. The firefly luciferase gene has been inserted to pFL-Jc1 to develop a plamid pFL-Jc1-luc for use as a reporter of viral replication. See Amako et al., J. Virol. 2009, 83:9237-46. Specifically, the pFL-JC1-luc construct can be utilized to develop an infectious HCV cell culture system to test novel HCV inhibitors, including entry inhibitors, in vitro using luciferase expression.
Preparation of infectious HCV. Jc1-luc or HCV2a/2aChRluc RNA was in vitro transcribed using T7 RiboMAX™ Express Large Scale RNA Production System (Promega). After RNA clean up (Qiagen RNeasy Mini kit), transfection was performed as previously described.
400 microliters of a Huh-7.5.1 or Huh7 cell suspension (10^7 cells/ml) was placed in a 0.4-cm cuvette with 10 μg of Jc1-luc or HCV2a/2aChRluc RNA and electroporated (Bio-Rad Gene Pulser System) using a single square wave at 260 V and 25 ms pulse length. The cells were plated in 15-cm tissue culture dishes (Corning) and supernatant was harvested and concentrated using a centrifugal filter (Amicon 100K, Millipore).
Luciferase compound activity assay. Cell culture and luciferase compound assays were performed as previously described. See Wyles et al., J. Virol. 2007, 81:3005-8; Wyles et al., Antimicrob Agents Chemother. 2009, 53:2660-2; Grünberger et al., J. Infect. Dis. 2008, 197:42-5; Wyles et al., Antimicrob Agents Chemother, 2008, 52:1862-4. Briefly, Huh7.5.1 cells were seeded into 96-well plates at a density of 10,000 cells per well in 100 μl medium. After incubating overnight for attachment, Jc1-luc virus at an MOI 0.01 was added to wells with or without compounds at the specified concentrations. All conditions were run in triplicate. After 24 hours, medium was aspirated and replaced with 100 μl of complete medium containing an identical concentration of compound(s) followed by additional 48 hour incubation. The luciferase assay (Bright-Glo; Promega) was carried out according to the manufacturer's instructions. Luciferase activity was determined using a microplate luminometer (Veritas microplate luminometer; Turner Biosystems). […]

The subject of the next assay is HCV2a/2aChRluc virus. As to the kind of experiment: Compound 5 with ribavirin or VX950 in the HCV2a/2aChRluc system. Type of assay: cell-based, HCV genotype 2a. The procedure:
100 μl of serially diluted compound solutions (100, 30, 10, 3, 1, 0.3, and 0.1 nM) was inoculated onto Huh-7 cells in a 96-well plate. Subsequently, 100 ul (TCID50, ˜0.6) of HCV2a/2aChRluc virus was added onto the cells. After co-incubation for 72 hrs, Renilla luciferase expression was determined (Renilla Luciferase Assay, Promega) and reported as relative light units (RLU).
Data analysis. Determinations of compound interactions were quantified based on the median-effect principle described by Chou and Talalay. Chou T., Talalay P., Adv. Enzyme. Regul., 1984, 22:27-55. Combination indices (CIs) were determined using Calcusyn (Biosoft) for each experiment at the EC50, EC75, and EC90 levels. Five replicates per condition were evaluated. A CI<0.9 was considered synergistic, a CI≧0.9 and ≦[…] was considered additive, and a CI>1.1 was deemed antagonistic.

Assay [2] deals with SR-B1 pathway. Conditions: human subjects; cited from earlier work.
In assay [3] the test system is SR-B1 pathway. The following applies: cited from earlier work.
Assay [4] concerns HCV genotype 1b subgenomic replicon. The experiment in a line: HCV replicon assay (HCV1b replicon cells, NS5A ELISA). Type of assay: cell-based. Conditions: 3 days. How it is done:
Alternatively, Hut1b cells (Huh7 cells stably replicating HCV genotype 1b subgenomic replicon) were treated with serial dilutions of the test compound for 72 hours. Replication efficiency was monitored by ELISA assay using anti-HCV NS5A monoclonal antibody (Virogen).
Increasing amounts of compound were inoculated onto HCV1b replicon cells and incubated for 3 days. Following incubation, HCV replication was monitored with NS5A protein expression by ELISA.
Background: In antiviral work, replicon cells carry a viral genome segment that copies itself.

The next assay relates to HCV2aChLuc virus. As to the kind of experiment: In vitro HCVcc entry assay: HCV2aChLuc virus infection of Huh7 cells, Renilla luciferase read-out. Type of assay: cell-based, HCV genotype 2a. Conditions: for IC50: Hepatitis C virus.
Assay [5] concerns HCV1a chimeric virus and 2a chimeric virus. The experiment in a line: Combination of viral entry inhibitor with ribavirin. Type of assay: cell-based, HCV. Conditions: ribavirin 15 μM. The procedure: Varying amounts of each compound were coincubated with a high concentration of ribavirin (15 μM).

Entries after “also recorded” stand apart in the source; their conditions may differ. Read-outs that look alike come from different tables or passages of the source.

What is called EC50 is the concentration needed to bring the measured effect to its halfway point. As a reminder, the IC50 is the concentration that inhibits the measured activity by half.

For `COc1c(NC(=O)C(=O)c2ccc(OCCN3CCOCC3)c3ccccc23)cc(C(C)(C)C)cc1NS(C)(=O)=O` [Compound 5, N-(5-tert-butyl-2-methoxy-3-(methylsulfonamido)phenyl)-2-(4-(2-morpholinoethoxy)naphthalen-1-yl)-2-oxoacetamide], the “inhibitory effect on BVDV infection” value in assay [1] was “No significant inhibitory effect”. In the assay with Jc1-luc virus, the EC50 is 20.2 ± 1.37 nM. In the assay on HCV2a/2aChRluc virus (HCV2a/2aCHRLuc system), the “interaction with VX-950” value is given as “consistent synergy”. For the same molecule, the “effect of combination with ribavirin” value (in the assay with HCV2a/2aChRluc virus (ribavirin 15 μM); in assay [5]) was “no antagonistic effect” each time. Also, the values for the HDL levels entry with SR-B1 pathway [2], in the assay on SR-B1 pathway [3] (mice with a knock-out in the SR-B1 gene) and in the assay on SR-B1 pathway [3] (mice) were “raised HDL levels”, “not” and “raised HDL levels”, respectively. In addition, the “effect on HCV replication (NS5A protein expression by ELISA)” value in assay [4] was “did not measurably inhibit; also recorded: no measurable effect”. Also, the IC50 with HCV2aChLuc virus (Huh-7, 72 h, read-out: observed IC50, Huh7 cells co-incubated with HCV2aChRluc virus and compound for 3 days, repeated assays (n>30)) is 0.05 to 0.5 nM; with HCV2aChLuc virus (Huh-7, read-out: Activity class (IC50), tested according to the method of Example 3), < 5 nM. Moreover, in the assay on HCV2aChLuc virus (Huh7 cells, 3 days), the “inhibitory effect on HCV2aChLuc viral entry” value is listed as “dose-dependent inhibitory effect; also recorded: dose-dependent inhibition”.
